Experimental findings from ChEMBL document CHEMBL4219178, “Synthesis of (aminoalkyl)cycleanine analogues: cytotoxicity, cellular uptake, and apoptosis induction in ovarian cancer cells” (Bioorg Med Chem Lett, 2018) are described below.

Data set [1] is described as follows: Selectivity index, ratio of IC50 for human ovarian epithelial cells to IC50 for human OVCAR8 cells. It counts as toxicity. Conditions: human ovarian epithelial cells versus OVCAR8 cells, read-out: Ratio IC50.
Data set [2] is described as follows: Selectivity index, ratio of IC50 for human ovarian epithelial cells to IC50 for human A2780 cells. The data set is classed as toxicity. Conditions: human ovarian epithelial cells versus A2780 cells, read-out: Ratio IC50.
A short description of data set [3]: Selectivity index, ratio of IC50 for human ovarian epithelial cells to IC50 for human IGROV1 cells. Conditions: human ovarian epithelial cells versus IGROV1 cells, read-out: Ratio IC50. It counts as toxicity.
Data set [4] relates to OVCAR-8. Briefly: Antiproliferative activity against human OVCAR8 cells after 72 hrs by SRB assay. The data set is classed as functional, cell-based. Conditions: OVCAR-8, 72 h. On the technique in general: In SRB staining, fixed cells bind dye roughly in proportion to their protein.
Data set [5] has as its system A2780. The experiment in a line: Antiproliferative activity against human A2780 cells after 72 hrs by SRB assay. It counts as functional, cell-based. Conditions: A2780, 72 h.
The nature of data set [6]: Cytotoxicity against human ovarian epithelial cells assessed as reduction in cell viability after 72 hrs by SRB assay. The data set is classed as cell-based.
Data set [7] deals with IGROV-1. The experiment in a line: Antiproliferative activity against human IGROV1 cells after 72 hrs by SRB assay. It counts as functional, cell-based. Conditions: IGROV-1, 72 h.
Data set [8] in a line: Drug uptake in human OVCAR8 cells at 20 uM after 48 hrs by Alexa 488 azide dye-based confocal fluorescence microscopy. It counts as ADME, cell-based. Conditions: ovcar-8, 48 h.
Data set [9] deals with OVCAR-8. Briefly: Induction of apoptosis in human OVCAR8 cells assessed as early apoptotic cells at 20 uM after 48 hrs by Annexin V-FITC/propidium iodide based flow cytometry (reference value: 4%). It counts as functional. A general note: Flow cytometry measures light scatter and fluorescence of single cells or particles in a stream.
Data set [10] relates to OVCAR-8. The experiment in a line: Induction of apoptosis in human OVCAR8 cells assessed as nucleus condensation at 10 to 20 uM incubated for 24 to 48 hrs by phase contrast light microscopy. The data set is classed as functional, cell-based.
The subject of data set [11] is OVCAR-8. Briefly: Induction of apoptosis in human OVCAR8 cells assessed as induction of PARP-1 cleavage at 20 uM after 48 hrs by Western blot. The data set is classed as functional, cell-based. On the technique in general: Immunoblotting shows a protein as a band on a membrane.
Data set [12] deals with OVCAR-8. The experiment in a line: Cell cycle arrest in human OVCAR8 cells assessed as accumulation at subG1 phase at 20 uM after 48 hrs by propidium iodide based flow cytometry. The data set is classed as functional.
The test system of data set [13] is OVCAR-8. Briefly: Cell cycle arrest in human OVCAR8 cells assessed as decrease in G0/G1 phase at 20 uM after 48 hrs by propidium iodide based flow cytometry. The data set is classed as functional.
Data set [14] concerns OVCAR-8. Briefly: Induction of apoptosis in human OVCAR8 cells assessed as induction of caspase 3/7 activity at 20 uM incubated for 48 hrs by caspase-Glo 3/7 reagent based luminescence assay. It counts as functional, cell-based.
Data set [15] relates to IGROV-1. Briefly: Induction of apoptosis in human IGROV1 cells assessed as induction of caspase 3/7 activity at 20 uM incubated for 48 hrs by caspase-Glo 3/7 reagent based luminescence assay. The data set is classed as functional, cell-based.
Data set [16] concerns OVCAR-8. The experiment in a line: Induction of apoptosis in human OVCAR8 cells assessed as cell shrinkage at 10 to 20 uM incubated for 24 to 48 hrs by phase contrast light microscopy. The data set is classed as functional, cell-based.
For data set [17], the system named is OVCAR-8. The experiment in a line: Induction of apoptosis in human OVCAR8 cells assessed as viable cells at 20 uM after 48 hrs by Annexin V-FITC/propidium iodide based flow cytometry (reference value: 84%). The data set is classed as functional. As to conditions: OVCAR-8, 48 h, read-out: Activity.
The test system of data set [18] is A2780. The experiment in a line: Induction of apoptosis in human A2780 cells assessed as induction of caspase 3/7 activity at 20 uM incubated for 48 hrs by caspase-Glo 3/7 reagent based luminescence assay. It counts as functional, cell-based.
For data set [19], the system named is OVCAR-8. Briefly: Induction of apoptosis in human OVCAR8 cells assessed as late apoptotic cells at 20 uM after 48 hrs by Annexin V-FITC/propidium iodide based flow cytometry (reference value: 5%). The data set is classed as functional.
Data set [20] concerns OVCAR-8. The experiment in a line: Induction of apoptosis in human OVCAR8 cells assessed as cell detachment at 10 to 20 uM incubated for 24 to 48 hrs by phase contrast light microscopy. The data set is classed as functional, cell-based.

Activity calls are given as the source filed them. No cut-off for these calls is given here.

What is called IC50 is the midpoint of a concentration-inhibition curve.

On to `COc1cc2c3c(c1OC)Oc1ccc(cc1)C[C@@H]1c4c(cc(OC)c(OC)c4Oc4ccc(cc4)C[C@H]3N(C)CC2)CCN1C`, for which the selectivity ratio stood at 3 in data set [1], 5 in data set [2] and 3 in [3]. In addition, the IC50 in [4] amounted to 10 µM; in data set [5], 7.6 µM; in data set [6] it was 35 µM; in [7], 14 µM. The Drug uptake result in [8] is on record as “Not Active”.
For `COc1cc2c3c(c1OC)Oc1ccc(cc1)C[C@@H]1c4c(c(CN(C)C)c(OC)c(OC)c4Oc4ccc(cc4)C[C@H]3N(C)CC2)CCN1C`, the selectivity ratio in [1] worked out at 2; in data set [2], 3; in [3] it was 2. Besides, the Activity is given as 13% in data set [9] and 25% in data set [19]. Moreover, the outcome in data set [10], in data set [11], in data set [12], in [13], in [14] and in [15] was Active. Further, the result in data set [16], in [18] and in data set [20] was Active. In addition, the 50% inhibitory concentration (IC50) in [4] was determined as 5.2 µM; in [5], 3.6 µM; in data set [6] it was 10 µM; in data set [7], 4.4 µM. In addition, the viability at 20 µM in [17] came out at 51%.
With `C#CCNCc1c2c3c(c(OC)c1OC)Oc1ccc(cc1)C[C@@H]1c4c(cc(OC)c(OC)c4Oc4ccc(cc4)C[C@H]3N(C)CC2)CCN1C`, the selectivity ratio in data set [1] was 6; in data set [2], 5; in [3], 5. Besides, the figures for the Activity in data set [9] and in data set [19] were 11% and 38%, respectively. Further, the outcome in data set [10], in data set [11], in [12], in data set [13], in [14] and in [15] was Active. Also, the outcome in data set [16], in data set [18] and in [20] was Active. Moreover, the IC50 in data set [4] worked out at 5.6 µM; in data set [5], 6.3 µM; in [6] it was 32 µM; in [7] it was 6.1 µM. Besides, the viability at 20 µM in data set [17] came out at 50%. The Drug uptake result in [8] was “Active”.
